The test is filed under the species Mus musculus. Put plainly: Hypoglycemic activity in alloxan-diabetic female albino mice expressed as percentage reduction of plasma glucose levels. Type of test: functional. On the set-up: concentration or dose not given beside the values.
`CCNC(=O)NS(=O)(=O)c1ccc(C(=O)n2nc(C)cc2C)cc1` had a Reduction below 1%.

`Cc1nn(C(=O)c2ccc(NC(=O)NC3CCCCC3)cc2)c(C)c1Br`: the Reduction amounted to 2.5%.

With `Cc1cc(C)n(C(=O)n2nc(C)cc2C)n1`, the Reduction turned out to be 2.5%.

`Cc1cc(C)n(C(=O)c2ccc(S(=O)(=O)NC(=O)Nc3ccccc3)cc2)n1` showed a Reduction of 2%.

Compound `Cc1cc(C)n(CC(=O)NNC(=O)NC2CCCCC2)n1` returned a Reduction of 2.5%.

With `Cc1nn(-c2ccc(S(=O)(=O)NC(=O)NC3CCCCC3)cc2)c(C)c1Br`, the Reduction came out at 2.5%.

Compound `Cc1nn(C(=O)Nc2ccc(S(=O)(=O)NC(=O)NC3CCCCC3)cc2)c(C)c1Br` showed a Reduction of 4%.

Compound `Cc1cc(C)n(C(=O)c2ccccc2O)n1` gave a Reduction below 1%.

As for `CCCCNC(=O)NS(=O)(=O)c1ccc(-n2nc(C)c(Br)c2C)cc1`, the Reduction was found to be 3%.

`Cc1cc(C)n(CC(=O)n2nc(C)cc2C)n1` came in with a Reduction of 2.5%.

Turning to `CCCNC(=O)Nc1ccc(C(=O)n2nc(C)c(Br)c2C)cc1`, the Reduction is reported as 5%.

As to `Cc1nn(C(=O)c2ccc(S(=O)(=O)NC(=O)Nc3ccccc3)cc2)c(C)c1Br`, the Reduction turned out to be 3%.

For `CCCCNC(=O)Nc1ccc(C(=O)n2nc(C)c(Br)c2C)cc1`, the Reduction was determined as 6%.

On to `CCNC(=O)NS(=O)(=O)c1ccc(NC(=O)n2nc(C)c(Br)c2C)cc1`, for which the Reduction is given as below 1%.

As for `CCNC(=O)NS(=O)(=O)c1ccc(C(=O)n2nc(C)c(Br)c2C)cc1`, the Reduction was found to be 1%.

`Cc1cc(C)n(C(=O)c2ccncc2)n1` had a Reduction below 1%.

Consider `Cc1cc(C)n(C(=O)c2ccc(S(=O)(=O)NC(=O)NC3CCCCC3)cc2)n1`, for which the Reduction is reported as below 1%.

In turn, `Cc1cc(C)n(C(=O)Nc2ccc(S(=O)(=O)NC(=O)NC3CCCCC3)cc2)n1` returned a Reduction of 9%.

On to `Cc1cc(C)n(C(=O)Nc2ccc(S(=O)(=O)NC(=O)NCc3ccccc3)cc2)n1`, for which the Reduction worked out at 1%.

Compound `Cc1nn(C(=O)c2ccc(S(=O)(=O)NC(=O)NC3CCCCC3)cc2)c(C)c1Br` gave a Reduction of 1%.

For the compound `CCCNC(=O)NS(=O)(=O)c1ccc(-n2nc(C)c(Br)c2C)cc1`, the Reduction is given as 2%.

Take `Cc1cc(C)n(CC(=O)NNC(=O)NCc2ccccc2)n1`: the Reduction is recorded as below 1%.

For the compound `CCCNC(=O)NS(=O)(=O)c1ccc(C(=O)n2nc(C)cc2C)cc1`, the Reduction is on record as below 1%.

`CCCNC(=O)NS(=O)(=O)c1ccc(NC(=O)n2nc(C)c(Br)c2C)cc1` came in with a Reduction of 1%.

For the compound `Cc1cc(C)n(C(=O)c2cccnc2)n1`, the Reduction was below 1%.

For `CCCNC(=O)NS(=O)(=O)c1ccc(NC(=O)n2nc(C)cc2C)cc1`, the Reduction came to 6%.

Compound `Cc1nn(C(=O)c2ccc(S(=O)(=O)NC(=O)NCc3ccccc3)cc2)c(C)c1Br` registered a Reduction of 2%.

As to `CCCCNC(=O)NS(=O)(=O)c1ccc(NC(=O)n2nc(C)cc2C)cc1`, the Reduction worked out at 7.5%.

`CCCNC(=O)Nc1ccc(C(=O)n2nc(C)cc2C)cc1`: the Reduction is listed as 8%.

With `Cc1cc(C)n(C(=O)c2ccc(S(=O)(=O)NC(=O)NCc3ccccc3)cc2)n1`, the Reduction was below 1%.

Compound `CCNC(=O)NS(=O)(=O)c1ccc(-n2nc(C)c(Br)c2C)cc1` came in with a Reduction below 1%.

As for `Cc1cc(C)n(C(=O)c2ccc(NC(=O)NC3CCCCC3)cc2)n1`, the Reduction worked out at 20%.

Consider `Cc1cc(C)n(C(=O)Nc2ccc(S(=O)(=O)NC(=O)Nc3ccccc3)cc2)n1`, for which the Reduction came to 2%.

Consider `CCCCNC(=O)Nc1ccc(C(=O)n2nc(C)cc2C)cc1`, for which the Reduction is 15%.

Take `Cc1nn(C(=O)c2ccc(NC(=O)Nc3ccccc3)cc2)c(C)c1Br`: the Reduction was below 1%.

As to `CCCCNC(=O)NS(=O)(=O)c1ccc(C(=O)n2nc(C)cc2C)cc1`, the Reduction worked out at 2%.

Take `CCCNC(=O)NNC(=O)Cn1nc(C)cc1C`: the Reduction came out at 1%.

Consider `CCCCNC(=O)NS(=O)(=O)c1ccc(NC(=O)n2nc(C)c(Br)c2C)cc1`, for which the Reduction is 2%.

The compound `CCCCNC(=O)NNC(=O)Cn1nc(C)cc1C` came in with a Reduction of 2%.

As to `CCNC(=O)NNC(=O)Cn1nc(C)cc1C`, the Reduction was found to be 1%.

Compound `Cc1cc(C)n(C(=O)c2ccc(NC(=O)Nc3ccccc3)cc2)n1` gave a Reduction of 6%.

`CCNC(=O)NS(=O)(=O)c1ccc(NC(=O)n2nc(C)cc2C)cc1` showed a Reduction of 4%.

Regarding `Cc1nn(-c2ccc(S(=O)(=O)NC(=O)Nc3ccccc3)cc2)c(C)c1Br`, the Reduction is reported as below 1%.
